Consider 4 molecules from US20220105127A1, “METHODS FOR PROVIDING THE BENEFITS OF METHIONINE RESTRICTION WITHOUT DIETARY RESTRICTION” (priority 2020, published 2022).

Type in all cases: in vivo, mouse
One assay relates to C57BL/6J mice. Nature of the assay: Experiment 2: high-fat diet with first compounds, body mass and inguinal/perigonadal fat pad mass. Conditions: for Total Body Mass, Females / Inguinal Fat Mass, Females / Perigonadal Fat Mass, Females / Total Body Mass, Males / Inguinal Fat Mass, Males / Perigonadal Fat Mass, Males: high-fat diet 9 weeks, untreated = 100%, lysine 6.45%; for Total Body Mass, Females / Total Body Mass, Males: O-benzyl serine 4.3%, S-phenyl cysteine 4.3% of food; for Inguinal Fat Mass, Females / Perigonadal Fat Mass, Females / Inguinal Fat Mass, Males / Perigonadal Fat Mass, Males: OBS 4.3%, SPC 4.3% of food; for Total Body Mass, Males / Inguinal Fat Mass, Males / Perigonadal Fat Mass, Males: male mice; for Total Body Mass, Males: tryptophan dose not given. As to the method: (§1) Food and water were provided ad libitum.
(§2) Prior to blood collection, animals were fasted for 4 hours to establish a physiological baseline. Blood was then collected from the retro-orbital plexus and processed using EDTA-K2-coated blood collection tubes (Milian Dutscher Group; Geneva, Switzerland). The resulting plasma was frozen and stored at −80° C. until used for analysis. A portion of each blood sample was used for blood glucose determination using an Abbott Freestyle Lite glucometer and glucose strips (Abbott Diabetes Care, Inc.; Alameda, Calif.). At the end of each study, animals were fasted and bled, as described above. The mice were then sacrificed, their overall body condition was assessed, and certain physiological parameters were measured. The inguinal and perigonadal fat pads, as well as liver of each mouse, were harvested by surgical resection, weighed, flash frozen, and stored at −80° C.

For another assay, the system named is plasma glucose. In words: Experiment 2: high-fat diet with first compounds, plasma glucose. Conditions: for Plasma Glucose, Females / Plasma Glucose, Males: high-fat diet 9 weeks, untreated = 100%, lysine 6.45%, OBS 4.3%, SPC 4.3% of food; for Plasma Glucose, Males: male mice. How it is done: as §1
as §2, with “Body mass and food consumption were monitored once a week for sixteen weeks. Prior” for “Prior”

The subject of the next assay is insulin. In words: Experiment 2: high-fat diet with first compounds, plasma insulin ELISA. Conditions: for Plasma Insulin, Females / Plasma Insulin, Males: high-fat diet 9 weeks, untreated = 100%, lysine 6.45%, OBS 4.3%, SPC 4.3% of food; for Plasma Insulin, Males: male mice. As to the method: as §1
as §2, with “Body mass and food consumption were monitored once a week for sixteen weeks. Prior” for “Prior”
(§3) Enzyme-linked immunosorbent assay (ELISA) kits were obtained commercially and used to measure plasma levels of IGF-1 (R&D Systems; Minneapolis, Minn.), adiponectin (R&D Systems), FGF-21 (Millipore Corp.; Billerica, Mass.), leptin (R&D Systems), growth hormone (Millipore Corp.), and insulin (ALPCO Diagnostics; Salem, N.H.). Tests were performed according to the manufacturers' recommendations and measured using a Molecular Devices SpectraMax M5 Microplate Reader (Molecular Devices LLC; San Jose, Calif.). Two technical replicates were performed for each sample and the statistical significance of the resulting values determined by unpaired two-tailed t-tests using the software package Prism 8 (Graph-Pad Software; La Jolla, Calif.).
(An ELISA detects its analyte on a solid surface through an enzyme-linked reagent.)

In another assay the test system is IGF-1. In words: Experiment 2: high-fat diet with first compounds, plasma IGF-1 ELISA. Conditions: for Plasma IGF-1, Females / Plasma IGF-1, Males: high-fat diet 9 weeks, untreated = 100%, lysine 6.45%, OBS 4.3%, SPC 4.3% of food; for Plasma IGF-1, Males: male mice. As to the method: as §1
as §2, with “Body mass and food consumption were monitored once a week for sixteen weeks. Prior” for “Prior”
as §3

In another assay the test system is leptin. Nature of the assay: Experiment 2: high-fat diet with first compounds, plasma leptin ELISA. Conditions: for Plasma Leptin, Females / Plasma Leptin, Males: high-fat diet 9 weeks, untreated = 100%, lysine 6.45%, OBS 4.3%, SPC 4.3% of food; for Plasma Leptin, Males: male mice. As to the method: as §1
as §2, with “Body mass and food consumption were monitored once a week for sixteen weeks. Prior” for “Prior”
as §3

In another assay the test system is adiponectin. Nature of the assay: Experiment 2: high-fat diet with first compounds, plasma adiponectin ELISA. Particulars: high-fat diet 9 weeks, untreated = 100%, lysine 6.45%, OBS 4.3%, SPC 4.3% of food; for Plasma Adiponectin, Females: female mice; for Plasma Adiponectin, Males: male mice. As to the method:
as §1
as §2, with “Body mass and food consumption were monitored once a week for sixteen weeks. Prior” for “Prior”
as §3

The subject of another assay is FGF-21. In words: Experiment 2: high-fat diet with first compounds, plasma FGF-21 ELISA. Particulars: untreated = 100%; for Plasma FGF-21, Females: female mice, high-fat diet 9 weeks, lysine 6.45%, OBS 4.3%, SPC 4.3% of food. As to the method: as §1
as §2, with “Body mass and food consumption were monitored once a week for sixteen weeks. Prior” for “Prior”
as §3

Setting [1] is: female mice, 4.3% S-phenyl cysteine, high-fat diet, 9 week interval, p<0.001 vs untreated.
Where [2] appears, read: female mice, 4.3% S-phenyl cysteine, high-fat diet, 9 week interval.

Regarding `NCCCC[C@H](N)C(=O)O` [Lysine, lysine], in the assay with C57BL/6J mice (female mice), the “Total Body Mass, Females” value came out at 72%; the “Inguinal Fat Mass, Females” value is reported as 38%; the “Perigonadal Fat Mass, Females” value was 37%. For the same molecule, in the assay on C57BL/6J mice, the “Total Body Mass, Males” value amounted to 91%; the “Inguinal Fat Mass, Males” value came out at 42%; the “Perigonadal Fat Mass, Males” value is 34%. In addition, in the assay with plasma glucose (female mice), the “Plasma Glucose, Females” value amounted to 73%. In addition, the “Plasma Glucose, Males” value with plasma glucose was determined as 84%. In the assay on insulin (female mice), the “Plasma Insulin, Females” value amounted to 41%. Besides, in the assay on insulin, the “Plasma Insulin, Males” value was 22%. Besides, the “Plasma IGF-1, Females” value with IGF-1 (female mice) was 66%. The “Plasma IGF-1, Males” value in the assay with IGF-1 is given as 68%. The “Plasma Leptin, Females” value in the assay on leptin (female mice) was determined as 28%. The “Plasma Leptin, Males” value with leptin is listed as 13%. Besides, in the assay with adiponectin, the “Plasma Adiponectin, Females” value turned out to be 125% and the “Plasma Adiponectin, Males” value is given as 92%. In addition, the “Plasma FGF-21, Females” value in the assay on FGF-21 stood at 144%.

On to `N[C@@H](CSc1ccccc1)C(=O)O` [S-Phenyl-Cysteine, S-phenyl cysteine], for which, in the assay on C57BL/6J mice (setting [1]), the “accumulation of inguinal and perigonadal adipose tissue (FIGS. 6A, 6B)” value is “robust protection against the accumulation of adipose tissue”; the “total weight gain (FIG. 5)” value is “robust prevention of total weight gain”. For the same molecule, in the assay on C57BL/6J mice (female mice), the “Total Body Mass, Females” value is 71%; the “Inguinal Fat Mass, Females” value was found to be 23%; the “Perigonadal Fat Mass, Females” value is on record as 25%. Moreover, in the assay with C57BL/6J mice, the “Total Body Mass, Males” value is given as 87%; the “Inguinal Fat Mass, Males” value is recorded as 44%; the “Perigonadal Fat Mass, Males” value is reported as 35%. Besides, in the assay with plasma glucose (female mice, 4.3% S-phenyl cysteine, high-fat diet, 9 week interval, more efficacious than methionine restriction), the “plasma glucose level over time (FIG. 7A)” value is “maintenance of low plasma glucose”. In the assay with plasma glucose (female mice), the “Plasma Glucose, Females” value is 71%. Further, in the assay with plasma glucose, the “Plasma Glucose, Males” value is given as 70%. The “plasma insulin level over time (FIG. 7B)” value with insulin (setting [2]) is listed as “maintenance of low insulin levels”. The “Plasma Insulin, Females” value in the assay with insulin (female mice) came out at 32%. The “Plasma Insulin, Males” value with insulin is recorded as 25%. Further, in the assay with IGF-1 (setting [2]), the “plasma IGF-1 level over time (FIG. 8A)” value is recorded as “sustained reductions of plasma IGF-1 levels”. Besides, the “Plasma IGF-1, Females” value in the assay on IGF-1 (female mice) is 72%. The “Plasma IGF-1, Males” value in the assay with IGF-1 is reported as 66%. Besides, the “plasma leptin level over time (FIG. 8B)” value with leptin (setting [2]) was “maintenance of low plasma leptin levels”. Further, in the assay with leptin (female mice), the “Plasma Leptin, Females” value worked out at 16%. In the assay on leptin, the “Plasma Leptin, Males” value is 11%. Moreover, in the assay with adiponectin, the “Plasma Adiponectin, Females” value is given as 100% and the “Plasma Adiponectin, Males” value amounted to 213%. Further, in the assay on FGF-21, the “Plasma FGF-21, Females” value is reported as 181%.

On to `N[C@@H](Cc1c[nH]c2ccccc12)C(=O)O` [Tryptophan, tryptophan], for which, in the assay with C57BL/6J mice, the “Total Body Mass, Males” value turned out to be 85%; the “Inguinal Fat Mass, Males” value was determined as 50%; the “Perigonadal Fat Mass, Males” value is on record as 39%. Further, in the assay with plasma glucose, the “Plasma Glucose, Males” value came out at 94%. The “Plasma Insulin, Males” value in the assay on insulin came out at 56%. Besides, the “Plasma IGF-1, Males” value with IGF-1 came to 73%. For the same molecule, the “Plasma Leptin, Males” value with leptin amounted to 18%. In addition, the “Plasma Adiponectin, Males” value in the assay on adiponectin was 118%. The “Plasma FGF-21, Males” value in the assay on FGF-21 (male mice, high-fat diet, tryptophan dose not given) was determined as 502%.

As for `N[C@@H](COCc1ccccc1)C(=O)O` [O-Benzyl-Serine, O-benzyl serine], in the assay on C57BL/6J mice (female mice), the “Total Body Mass, Females” value was found to be 69%; the “Inguinal Fat Mass, Females” value came to 27%; the “Perigonadal Fat Mass, Females” value is reported as 25%. Further, in the assay with C57BL/6J mice, the “Total Body Mass, Males” value was determined as 89%; the “Inguinal Fat Mass, Males” value is reported as 42%; the “Perigonadal Fat Mass, Males” value came out at 31%. The “Plasma Glucose, Females” value in the assay with plasma glucose (female mice) is 71%. Further, the “Plasma Glucose, Males” value with plasma glucose came out at 93%. In the assay on insulin (female mice), the “Plasma Insulin, Females” value is on record as 37%. Further, in the assay with insulin, the “Plasma Insulin, Males” value is listed as 28%. Moreover, in the assay with IGF-1 (female mice), the “Plasma IGF-1, Females” value is recorded as 79%. Besides, the “Plasma IGF-1, Males” value with IGF-1 turned out to be 72%. Further, the “Plasma Leptin, Females” value in the assay on leptin (female mice) came out at 20%. In addition, in the assay on leptin, the “Plasma Leptin, Males” value is listed as 12%. Also, in the assay on adiponectin, the “Plasma Adiponectin, Females” value is reported as 106% and the “Plasma Adiponectin, Males” value worked out at 108%. Further, the “Plasma FGF-21, Females” value in the assay on FGF-21 is given as 280%.
